These results are taken from patent US9486502B2, “Methods of administering interferon gamma to absorb fluid from the subretinal space” (The United States of America, as represented by the …, priority 2008, dated 2016).

The subject of one test is hfRPE monolayers. Put plainly: fluid transport (JV, TEP, RT) across hfRPE monolayers in modified Üssing chamber. The class given is cell-based, human. An excerpt: Confluent monolayers of hfRPE cultured on transwells were mounted in a modified Üssing chamber and transepithelial water flow measurements (JV) were made with a capacitance probe technique as described previously in Maminishkis, A., et al., Invest Ophthalmol Vis Sci, 2006, 47, 3612-3624; Shi, G., et al., Invest Ophthalmol Vis Sci, 2008, 49, 4620-4630; Edelman, J. L., et al., Invest Ophthalmol Vis Sci, 1991, 32, 3033-3040; Jiang, C., et al., Science, 1993, 262, 424-427; and Maminishkis, A., et al., Invest Ophthalmol Vis Sci, 2002, 43, 3555-3566, each incorporated herein by reference in its entirety.
Tissue viability was ascertained by recording transepithelial potential (TEP) and total tissue resistance (RT). It should be noted that the solution composition changes in this chamber were relatively slow (≈1-2 chamber volumes per minute) and the data sampling rate was once per minute, more than two orders of magnitude slower than the sampling rate in the electrophysiology chamber (see below). Therefore it was not possible to record fast changes, in seconds or minutes, in JV, TEP, or RT. After addition of IFNγ to the apical or basal baths, steady-state JV, TEP, and RT were recorded for 20-30 minutes. In control experiments, successive additions of IFNγ were made to test for the repeatability and reversibility of responses. To block IFNγ effects, RPE cells were incubated for 30-60 minutes with a blocking antibody against IFNγ R1, JAK inhibitor I, PKA inhibitors (H-89, EMD Biosciences; RP-8-Br-cAMPS, Sigma-Aldrich), nitric oxide synthase inhibitor (aminoguanidine hydrochloride, Sigma-Aldrich), P38 MAPK inhibitors (SB203580 or SB20290), or CHX. Other components of this signaling pathway were studied using P38 MAPK inhibitors (SB203580 and SB202190). Relatively specific Cl channel inhibitors, CFTRinh-172 or DIDS (EMD Biosciences, La Jolla, Calif.), were used to block cAMP or Ca^2+-activated Cl channels; experiments with CFTRinh-172 were performed as described in Muanprasat, C., et al., J Gen Physiol, 2004, 124, 125-137, incorporated herein by reference in its entirety. In chronic experiments, paired hfRPE tissues with matched RT values were incubated for 4-24 hours with IFNγ or CHX. The subsequent changes in JV, RT, and TEP were measured in Ringer's solution or serum free cell culture media as previously described in Shi, G., et al., Invest Ophthalmol Vis Sci, 2008 and Maminishkis, A., et al., Invest Ophthalmol Vis Sci, 2006, 47, 3612-3624, each incorporated herein by reference in its entirety. Intracellular levels of NO were elevated with 1-Hydroxy-2-oxo-3-(3-aminopropyl)-3-isopropyl-1-triazene (NOC-5, Enzo Life Sciences, Plymouth, Pa.). 8-Br-cGMP was purchased from Sigma-Aldrich.

The subject of another test is hfRPE cells. Description: immunoblotting of JAK-STAT / MAP kinase signalling proteins in hfRPE. The note with it: 4 hours. The format is cell-based, human. Here is the method: Immunoblotting was performed as previously described in Li, R. et al., 2007, Invest Ophthalmol Vis Sci, 48, 5722-5732, incorporated by reference in its entirety herein. Primary cultures of hfRPE and native human adult RPE cells were lysed using RIPA buffer (Sigma-Aldrich) supplemented with proteinase inhibitor cocktail (Roche). Total protein in the supernatant was measured (BCA™ protein assay, Pierce Biotechnology) and 20 µg of protein from cell lysate supernatants was electrophoresed on a 4-12% gradient Bis-Tris NuPAGE gel (Invitrogen) under reduced or non-reduced conditions. Resolved proteins were transferred to nitrocellulose membranes (membranes and XCell II™ Blot Module, Invitrogen).
The membranes were incubated with mouse anti-human IFNγ R1 monoclonal antibody (R&D Systems), anti-human IFNγ R2 (Santa Cruz Biotechnology), anti-human IFNAR1, anti-human IFNAR2 (Abcam), anti-IRF1, anti-IRF2, anti-IRF8 (Santa Cruz Biotechnology) or anti-CFTR antibody 217 (Cystic Fibrosis Foundation Therapeutics Inc., Bethesda, Md.), after blocking non-specific binding ((StartingBlock™ T20 (TBS), Pierce Biotechnology). Membranes were then incubated with horseradish peroxidase (HRP) conjugated secondary antibody (Pierce Biotechnology) and visualized using Supersignal® West Dura Extended Duration Substrate (Pierce Biotechnology) and imaged using an Autochemie™ system (UVP, Upland, Calif.). The antibody-specific bands for IRF-1, IRF-2, ICSBP (IRF-8) and GAPDH were around 91 kDa, […], respectively.
For phosphorylation studies, cells were starved for 24 hours in serum-free medium (“SFM,” MEM-α modification medium containing non-essential amino acids and Glutamine-Penicillin-Streptomycin). Cells were treated with IFNγ (5-50 ng/ml) in SFM at various time points at 37° C. and lysed with RIPA buffer supplemented with proteinase inhibitor cocktail (Roche) and Halt™ phosphatase inhibitor cocktail (Pierce Biotechnology). 40 μg of protein was electrophoresed. As in the immunoblotting experiments described above, except that the membranes were incubated with anti-phospho-p38 MAP kinase (Thr180/Tyr182), anti-p38 MAP kinase, anti-phospho-Stat1 (Tyr701), anti-phospho-Stat1 (Ser727) or anti-Stat1 antibodies, respectively (each from Cell signaling Technology, Danvers, Mass.). The antibody-specific bands for STAT1/phospho-STAT1 (Tyr701) were around 84 kDa. GAPDH was blotted together with anti-GAPDH antibody (Abcam) and used as loading control. Cyclohexamide (“CHX”; Sigma-Aldrich), a protein synthesis inhibitor, was used at 62 μM.
For CFTR immunoblotting analysis, confluent monolayers of hfRPE were homogenized on ice in isolation solution (250 mM Sucrose, 10 mM Tris-HCl, 10 mM MgCl2, 1 mM CaCl2, pH 7.4) supplemented with Halt™ protease inhibitor cocktail, EDTA-free. Nuclei and intact cells were removed with centrifugation (900×g for 10 minutes at 4° C., followed by centrifugation at 10,000×g for 5 minutes). Crude plasma membrane proteins were collected after centrifugation at 100,000×g for 1 hour at 4° C.
On the technique in general: A western blot detects proteins with antibodies after separation by electrophoresis.

Where [1] appears, read: SB203580 pretreatment ≧30 minutes, n=6.
Setting [2] is: H-89 40 μM pre-treatment 30 minutes.

Where a name gives a salt, the structure may show the parent alone.

As to `Oc1ccc(-c2nc(-c3ccncc3)c(-c3ccc(F)cc3)[nH]2)cc1` [SB202190], in the test on hfRPE monolayers (SB202190 1-5 μM), the “block of IFNγ stimulated fluid transport” value is reported as “approximately 46%”.

As to `C[C@@H]1C[C@@H]([C@H](O)CC2CC(=O)NC(=O)C2)C(=O)[C@@H](C)C1` [CHX, cycloheximide], in the test with hfRPE cells (CHX 62 μM, with IFNγ), the “effect on IRF-2 protein” value was “no effect” and the “effect on de novo synthesis of IRF-1” value is given as “completely blocked”. Besides, the “effect on STAT1 synthesis” value with hfRPE cells (cycloheximide with IFNγ) is recorded as “partly inhibited”. The “effect of CHX per se on JV” value in the test on hfRPE monolayers (62 μM, apical and basal, 30 minutes) is “no apparent change”. Moreover, the “IFNγ-induced JV increase after CHX pre-treatment” value in the test on hfRPE monolayers (4 hours of pre-treatment with CHX) was “no IFNγ-induced JV increase”. The “effect on ability of CFTRinh−172 to block IFNγ-induced JV increase” value in the test on hfRPE monolayers (CHX 62 μM 30 minutes) is listed as “did not affect”. In addition, the “effect on IFNγ-induced increase in JV” value with hfRPE monolayers (CHX 62 μM 30 minutes before IFNγ 5 ng/ml) is given as “no effect”. Further, the “JV after IFNγ and CHX” value with hfRPE monolayers (IFNγ 5 ng/ml + CHX 62 μM, 24 hours, IFNγ alone 15.9, FIG. 14I) is on record as 8.8 μl·cm^−2·hr^−1. Further, in the test with hfRPE monolayers (another experiment, IFNγ alone 14.9), the “JV after IFNγ and CHX” value was 9.8 μl·cm^−2·hr^−1.

For the molecule `CC(C)N(CCCN)[N+]([O-])=NO` [NOC-5, 1-Hydroxy-2-oxo-3-(3-aminopropyl)-3-isopropyl-1-triazene], in the test with hfRPE monolayers (NOC-5 apical and basal baths, n=3), the “effect on JV” value is “more than doubled”.

For the molecule `C[S+]([O-])c1ccc(-c2nc(-c3ccncc3)c(-c3ccc(F)cc3)[nH]2)cc1` (centres unmarked) [SB203580], in the test with hfRPE monolayers (SB203580 5 μM), the “decrease of IFNγ-induced JV” value was “approximately 62%”. Besides, the “effect on IFNγ induced JV” value with hfRPE monolayers (SB 203580 5 μM apical and basal after IFNγ 5 ng/mL, n=9) was “decreased”. Further, in the test with hfRPE monolayers (SB203580, n=3), the “effect on JV following inhibition by basal bath CFTRinh−172” value is on record as “no further effect”. For the same molecule, in the test with hfRPE monolayers (setting [1]), the “effect on baseline level of JV” value is “no significant effect” and the “effect on the effect of IFNγ” value is listed as “completely blocked”.

As to `O=S(=O)(NCCNC/C=C/c1ccc(Br)cc1)c1cccc2cnccc12` [H-89], the “effect on IFNγ stimulated JV increase” value with hfRPE monolayers (H-89 40 μM after IFNγ) was “significantly blocked”. In the test with hfRPE monolayers (H-89 40 μM both sides, from 20.1±0.2), the “JV after H-89 added to IFNγ-stimulated hfRPE” value came to 8.3±1.3 μl·cm^−2·hr^−1. Besides, in the test with hfRPE monolayers (setting [2]), the “effect on baseline level of JV” value is reported as “no significant effect” and the “effect on the effect of IFNγ” value is given as “completely blocked”. The “JV after H-89” value in the test with hfRPE monolayers (four experiments, steady-state baseline 12.8±5.2) worked out at 12.9±3.7 μl·cm^−2·hr^−1.

For `O=S(=O)(O)c1cc(N=C=S)ccc1C=Cc1ccc(N=C=S)cc1S(=O)(=O)O` [DIDS], in the test on hfRPE monolayers (DIDS 500 μM, n=2), the “effect on spontaneous steady-state JV” value is “no effect”. The “effect on JV following CFTRinh−172 inhibition of IFNγ-induced JV” value with hfRPE monolayers (DIDS, n=2) is listed as “no further inhibition”. Moreover, in the test on hfRPE monolayers (basal DIDS), the “effect on IFNγ-induced JV increase” value is “not affected”.

In the case of `N=C(N)NN` [aminoguanidine hydrochloride], the “effect on IFNγ induced increase in Jv” value is on record as “blocks” with hfRPE monolayers (iNOS inhibitor 100 μM applied after IFNγ 5 ng/ml, n=3, hydrochloride); “block” in the test with hfRPE monolayers (iNOS inhibitor 100 μM applied after IFNγ 5 ng/ml, n=3, listed as aminoguandidie hydrochloride, hydrochloride); “completely blocked” in the test with hfRPE monolayers (pre-treatment with iNOS inhibitor, n=3).

Consider `Nc1nc2c(nc(Br)n2[C@@H]2O[C@@H]3COP(=O)(O)O[C@H]3[C@H]2O)c(=O)[nH]1` [8-Br-cGMP], for which the “JV after 8-Br-cGMP” value in the test with hfRPE monolayers (100 μM both baths, FIG. 21, from 6.0) turned out to be 19.5 μl·cm^−2·hr^−1. For the same molecule, in the test with hfRPE monolayers (four experiments, from 7.4±1.1), the “Jv after 8-Br-cGMP” value stood at 15.8±1.6 μl·cm^−2·hr^−1.
